Reference: patent US10758517B2, “mPGES-1 inhibitor for the treatment of osteoarthritis pain” (Glenmark Pharmaceuticals S.A., priority 2017, dated 2020)
Where two headings read alike, the source gives them in different places.

System: LPS-induced PGE2 release
Assay: Ex vivo LPS-induced PGE2 release in whole blood, multiple oral doses for 28 days (Example 2, Part 1)
Set-up: species or system human
Details: for ETmax (time to reach maximum effect), Median / ETmax, median difference from placebo / Eavg0-24 h, Difference in LS means (Compound I − placebo) / Epeak, Difference in LS means (Compound I − placebo) / EAUC0-24 h, Difference in LS means (Compound I − placebo) / EAUC0-24 h, LS means / Emax at 25 mg / Emax at 75 mg / Emax at 130 mg / inhibition at 25 mg / inhibition at 75 mg / inhibition at 130 mg: healthy subjects; for Emax at 25 mg / Emax at 75 mg / Emax at 130 mg / inhibition at 25 mg / inhibition at 75 mg / inhibition at 130 mg: Homo sapiens, po; for Emax at 25 mg / Emax at 75 mg / Emax at 130 mg: read-out: Epeak (maximum effect), LS means; for inhibition at 25 mg / inhibition at 75 mg / inhibition at 130 mg: read-out: Eavg0-24 h (average PGE2 inhibition over 24 hours), LS means
Method: Part 1 consisted of a MAD, double-blind, sequential-group study in healthy subjects. Twenty-four adult male and female subjects were recruited into 3 cohorts. Subjects were enrolled in a sequential manner in cohorts of 8, each randomized in a ratio of 6:2, to receive Compound I or placebo, respectively, for a duration of 28 days. Three dose levels of Compound I (25, 75 and 130 mg) were studied in Cohorts A, B and C, respectively. For each cohort in Part 1, the planned Compound I, qd dosing occurred in the fasted state in the morning on Days 1 to 28, both inclusive. Subjects in each cohort started dosing on the same day, with no less than 5 minutes dose interval between subjects on Day 1.
Concentrations below the limit of quantification were treated as ½ the lower limit of quantification for subsequent calculations.
Time points where unstimulated PGE2 levels were 3 times greater than the mean of unstimulated PGE2 and greater than or equal to half of the baseline for a particular subject were not included in the calculation of these parameters.
Baseline is the mean of Day −1 and pre-dose LPS stimulated PGE2.
Abbreviations: CI=confidence interval; EAUC0-24h=area under the effect-time curve from time zero to 24 hours postdose; Eavg0-24h=the average PGE2 inhibition over 24 hours; Epeak=maximum effect; ETmax=time to reach maximum effect; LS=least squares; N=number of subjects; PGE2=prostaglandin E2; qd=once daily.
^a Median, median difference from placebo and approximate 95% CI.

CC(C)(C)C(=O)NCc1ccc(Cl)c(-c2nn(-c3ccc(C(F)(F)F)cc3)c(=O)[nH]2)c1 [Compound I, N-(4-chloro-3-(5-oxo-1-(4-(trifluoromethyl)phenyl)-4,5-dihydro-1H-1,2,4-triazol-3-yl)benzyl)pivalamide]
ETmax (time to reach maximum effect), Median (Day 10, 130 mg qd): 4.00 h
ETmax, median difference from placebo (Day 10, 130 mg qd): -6.03 h
Eavg0-24 h, Difference in LS means (Compound I − placebo) (Day 10, 130 mg qd): 58.4%
Epeak, Difference in LS means (Compound I − placebo) (Day 10, 130 mg qd): 40.9%
EAUC0-24 h, Difference in LS means (Compound I − placebo) (Day 28, 25 mg qd): 1281 % · h
EAUC0-24 h, LS means (Day 28, 25 mg qd): 1621 % · h
ETmax (time to reach maximum effect), Median (Day 28, 25 mg qd): 2.00 h
ETmax, median difference from placebo (Day 28, 25 mg qd): -6.00 h
Eavg0-24 h, Difference in LS means (Compound I − placebo) (Day 28, 25 mg qd): 53.4%
Epeak, Difference in LS means (Compound I − placebo) (Day 28, 25 mg qd): 18.0%
EAUC0-24 h, Difference in LS means (Compound I − placebo) (Day 28, 75 mg qd): 1356 % · h
EAUC0-24 h, LS means (Day 28, 75 mg qd): 1696 % · h
ETmax (time to reach maximum effect), Median (Day 28, 75 mg qd): 10.0 h
ETmax, median difference from placebo (Day 28, 75 mg qd): 0.0333 h
Eavg0-24 h, Difference in LS means (Compound I − placebo) (Day 28, 75 mg qd): 56.4%
Epeak, Difference in LS means (Compound I − placebo) (Day 28, 75 mg qd): 21.2%
EAUC0-24 h, Difference in LS means (Compound I − placebo) (Day 28, 130 mg qd): 1192 % · h
EAUC0-24 h, LS means (Day 28, 130 mg qd): 1531 % · h
ETmax (time to reach maximum effect), Median (Day 28, 130 mg qd): 12.0 h
ETmax, median difference from placebo (Day 28, 130 mg qd): 0.177 h
Eavg0-24 h, Difference in LS means (Compound I − placebo) (Day 28, 130 mg qd): 49.6%
Epeak, Difference in LS means (Compound I − placebo) (Day 28, 130 mg qd): 13.9%
Emax at 25 mg (24 h, Day 1, 25 mg qd): 90.4%
Emax at 75 mg (24 h, Day 1, 75 mg qd): 82.1%
Emax at 130 mg (24 h, Day 1, 130 mg qd): 77.8%
Emax at 25 mg (240 h, Day 10, 25 mg qd): 83.7%
Emax at 75 mg (240 h, Day 10, 75 mg qd): 81.4%
Emax at 130 mg (240 h, Day 10, 130 mg qd): 79.6%
Emax at 25 mg (672 h, Day 28, 25 mg qd): 84.2%
Emax at 75 mg (672 h, Day 28, 75 mg qd): 87.4%
Emax at 130 mg (672 h, Day 28, 130 mg qd): 80.1%
inhibition at 25 mg (Day 1, 25 mg qd): 65.7%
inhibition at 75 mg (Day 1, 75 mg qd): 65.4%
inhibition at 130 mg (Day 1, 130 mg qd): 57.6%
inhibition at 25 mg (Day 10, 25 mg qd): 60.6%
inhibition at 75 mg (Day 10, 75 mg qd): 64.7%
inhibition at 130 mg (Day 10, 130 mg qd): 57.6%
inhibition at 25 mg (Day 28, 25 mg qd): 67.5%
inhibition at 75 mg (Day 28, 75 mg qd): 70.6%
inhibition at 130 mg (Day 28, 130 mg qd): 63.8%
inhibition of ex-vivo LPS-induced PGE2 release (in words) (multiple oral doses 25 mg to 130 mg qd, Days 1, 10 and 28): marked drug-related inhibition
time by which maximal inhibition was reached (post-dose on Day 1, each dose level (first sampling occasion)): ≤ 30 min
